This note sets out measurements from BindingDB's records for doi:10.7270/Q2D798VP (Broad Institute, 2009).

Bounds are passed on as bounds.

The target in this assay is T1, Zinc finger protein mex-5 (Caenorhabditis elegans, UniProt Q9XUB2).
T1 sequence (Q9XUB2 whole entry): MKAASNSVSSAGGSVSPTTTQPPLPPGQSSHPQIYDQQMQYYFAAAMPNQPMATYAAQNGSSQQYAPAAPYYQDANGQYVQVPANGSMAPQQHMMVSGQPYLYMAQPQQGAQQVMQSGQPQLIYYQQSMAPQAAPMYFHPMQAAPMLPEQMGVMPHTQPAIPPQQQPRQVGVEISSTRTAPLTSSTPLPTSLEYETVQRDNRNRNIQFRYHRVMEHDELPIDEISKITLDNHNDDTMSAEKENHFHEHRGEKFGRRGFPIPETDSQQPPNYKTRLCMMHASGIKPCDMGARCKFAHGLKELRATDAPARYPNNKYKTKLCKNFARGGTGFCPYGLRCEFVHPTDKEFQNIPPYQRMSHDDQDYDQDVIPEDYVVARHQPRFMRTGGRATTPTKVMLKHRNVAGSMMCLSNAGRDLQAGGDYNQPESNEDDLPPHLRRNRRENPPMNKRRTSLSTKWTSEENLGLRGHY
Briefly: MEX-5/TCR-2 RNA interaction inhibitors, dose response, biochemical, C. elegans, fluorescence polarization (AID 1960). Background: Fluorescence polarisation rises when a labelled molecule tumbles more slowly, as on binding a larger partner.
For `O=C1c2cccc([N+](=O)[O-])c2C(=O)N1n1c(O)csc1=S` [2-(4-keto-2-thioxo-thiazolidin-3-yl)-4-nitro-isoindoline-1,3-quinone], the response was half-maximal at 24.8 µM (EC50).

Regarding `Cc1nnc(N2C(=O)C(=O)C(C(=O)c3ccco3)C2c2ccc(C(C)(C)C)cc2)s1` (stereo not drawn) [2-(4-tert-butylphenyl)-3-(furan-2-carbonyl)-4-hydroxy-1-(5-methyl-1,3,4-thiadiazol-2-yl)-2H-pyrrol-5-one], the EC50 was found to be 7.86 µM.

`CCC(=CC=C[C@@H]1C=C[C@@H]2CCC[C@H]2[C@@H]1C(=O)c1ccc[nH]1)[C@@H]1O[C@@H]([C@@H](C)C(=O)O)CC[C@@H]1C` [2-(6-{1-ethyl-4-[4-(1H-pyrrol-2-ylcarbonyl)-2,3,3a,4,5,7a-hexahydro-1H-inden-5-yl]-1,3-butadienyl}-5-methyltetrahydro-2H-pyran-2-yl)propanoate] showed an EC50 of 1.16 µM. Against the preceding compound, the EC50 is about 6.8-fold lower.

Consider `COc1ccc(C2C3=C(CCCC3=O)OC(=N)C2C#N)c(OC)c1OC` (stereo not drawn) [2-Amino-5-oxo-4-(2,3,4-trimethoxy-phenyl)-5,6,7,8-tetrahydro-4H-chromene-3-carbonitrile], for which the EC50 is > 300 µM.

Consider `N#CC1C(=N)Oc2cc(O)c(Cl)cc2C1c1ccccc1F` (stereo not drawn) [2-Amino-6-chloro-4-(2-fluoro-phenyl)-7-hydroxy-4H-chromene-3-carbonitrile], for which the EC50 is > 300 µM.

In the case of `O=CC(C=Nc1ccccn1)c1nc2ccccc2o1` (stereo not drawn) [2-Benzooxazol-2-yl-3-(pyridin-2-ylamino)-propenal], the concentration giving a half-maximal response (EC50) was > 300 µM.

The compound `CN1C(=O)/C(=C/c2ccc(-c3ccccc3[N+](=O)[O-])o2)S/C1=N/c1ccc(Cl)c(C(=O)O)c1` [2-Chloro-5-[3-methyl-5-[1-[5-(2-nitro-phenyl)-furan-2-yl]-meth-(Z)-ylidene]-4-oxo-thiazolidin-(2Z)-ylideneamino]-benzoic acid] yielded an EC50 of 22.6 µM.

Turning to `O=C(CC(=O)c1ccccc1)C(=O)NNC(=O)c1ccccc1[N+](=O)[O-]` [2-Nitro-benzoic acid N'-(2-hydroxy-4-oxo-4-phenyl-but-2-enoyl)-hydrazide], the 50% effective concentration (EC50) came out at 1.11 µM.

For the compound `CC(N=Nc1ccc([N+](=O)[O-])cc1[N+](=O)[O-])c1cc2c(ccc3ccccc32)oc1=O` (stereo not drawn) [2-[1-[(2,4-dinitrophenyl)hydrazinylidene]ethyl]-3-benzo[f][1]benzopyranone], the concentration for a half-maximal effect (EC50) is > 300 µM.

In the case of `Oc1csc(N=NCc2cccs2)n1` [2-[2-(thiophen-2-ylmethylidene)hydrazinyl]-1,3-thiazol-4-one], the 50% effective concentration (EC50) is > 300 µM.

In the case of `CCOc1cc(C=C2SC(Nc3ccc(CC)cc3)=NC2=O)ccc1OCC(=O)O` [2-[2-ethoxy-4-[(Z)-[2-(4-ethylanilino)-4-oxo-1,3-thiazol-5-ylidene]methyl]phenoxy]acetic acid], the half-maximal effective concentration (EC50) amounted to 149 µM.

With `C=CCn1c(=O)c(=Cc2ccsc2)s/c1=C(\C#N)C(=O)NCCN1CCOCC1` [2-[3-allyl-4-keto-5-(3-thenylidene)thiazolidin-2-ylidene]-2-cyano-N-(2-morpholinoethyl)acetamide], the half-maximal effective concentration (EC50) was found to be 21.9 µM.

Take `Cc1ccc(C(=O)C2C(=O)C(=O)N(Cc3ccco3)C2c2ccc(N(C)C)cc2)o1` (stereo not drawn) [2-[4-(dimethylamino)phenyl]-1-(2-furanylmethyl)-4-hydroxy-3-[(5-methyl-2-furanyl)-oxomethyl]-2H-pyrrol-5-one]: the EC50 was > 300 µM.

In turn, `O=C(O)COc1ccc(C=Cc2nnc(-c3ccccc3O)[nH]2)cc1` [2-[4-[(E)-2-[(5Z)-5-(6-oxo-1-cyclohexa-2,4-dienylidene)-1,2-dihydro-1,2,4-triazol-3-yl]ethenyl]phenoxy]acetic acid] showed an EC50 of 0.945 µM. This lies in the sub-micromolar range.

In turn, `COc1ccc(C2CC(=O)C(=CNCCCO)C(=O)C2)cc1` (stereo not drawn) [2-[(3-hydroxypropylamino)methylidene]-5-(4-methoxyphenyl)cyclohexane-1,3-dione] returned a 50% effective concentration (EC50) of 37.9 µM.

`Cc1ccc(NNC2=Nc3ccccc3C2=O)cc1` [2-[(4-methylphenyl)hydrazo]-3-indolone] displayed a concentration for a half-maximal effect (EC50) of 25.7 µM.

For the compound `CC1(C)CC(=O)C2=C(C1)OC(=N)C(C#N)[C@@]21C(=O)N(CC(N)=O)c2ccccc21` (stereo partly drawn) [2-[(4R)-2-amino-3-cyano-2',5-diketo-7,7-dimethyl-spiro[6,8-dihydrochromene-4,3'-indoline]-1'-yl]acetamide], the EC50 is > 300 µM.

With `N#CC1C(=N)OC2=C(C(=O)CCC2)[C@]12C(=O)N(CC(N)=O)c1ccccc12` (stereo partly drawn) [2-[(4R)-2-amino-3-cyano-2',5-diketo-spiro[7,8-dihydro-6H-chromene-4,3'-indoline]-1'-yl]acetamide], the EC50 was > 300 µM.

Take `NC(=O)c1ccccc1N=CCC(=O)c1ccc(F)cc1` [2-[[(E)-3-(4-fluorophenyl)-3-keto-prop-1-enyl]amino]benzamide]: the EC50 was > 300 µM.

As to `COc1cccc(CN2C(=O)C3(C4=C(CCCC4=O)OC(=N)C3C#N)c3ccccc32)c1` (stereo not drawn) [2-amino-1'-(3-methoxybenzyl)-2',5-dioxo-1',2',5,6,7,8-hexahydrospiro[chromene-4,3'-indole]-3-carbonitrile], the 50% effective concentration (EC50) was > 300 µM.

As to `CC1(C)CC(=O)C2=C(C1)OC(=N)C(C#N)C21C(=O)N(CN2CCOCC2)c2ccccc21` (stereo not drawn) [2-amino-2',5-diketo-7,7-dimethyl-1'-(morpholinomethyl)spiro[6,8-dihydrochromene-4,3'-indoline]-3-carbonitrile], the EC50 is > 300 µM.

Regarding `COc1ccc(C2C3=C(CCCC3=O)OC(=N)C2C#N)cc1OC` (stereo not drawn) [2-amino-4-(3,4-dimethoxyphenyl)-5-keto-4,6,7,8-tetrahydrochromene-3-carbonitrile], the half-maximal effective concentration (EC50) was > 300 µM.

Take `COc1ccc(C2C3=C(CC(C)(C)CC3=O)OC(=N)C2C#N)cc1OC` (stereo not drawn) [2-amino-4-(3,4-dimethoxyphenyl)-5-keto-7,7-dimethyl-6,8-dihydro-4H-chromene-3-carbonitrile]: the EC50 was > 300 µM.

For the compound `N#CC1=C2CCCCC2C(c2cccnc2)C(C#N)(C#N)C1=N` (stereo not drawn) [2-amino-4-(3-pyridinyl)-4a,5,6,7-tetrahydro-4H-naphthalene-1,3,3-tricarbonitrile], the EC50 came to 17.5 µM. This lies in the double-digit micromolar range.

Take `COc1ccc(C2C3=C(CC(C)(C)CC3=O)OC(=N)C2C#N)cc1` (stereo not drawn) [2-amino-4-(4-methoxyphenyl)-7,7-dimethyl-5-oxo-6,8-dihydro-4H-1-benzopyran-3-carbonitrile]: the EC50 was > 300 µM.

For the compound `COc1cc(OC)c(C2C3=C(CC(C)CC3=O)OC(=N)C2C#N)cc1OC` (stereo not drawn) [2-amino-4-asaryl-5-keto-7-methyl-4,6,7,8-tetrahydrochromene-3-carbonitrile], the 50% effective concentration (EC50) was > 300 µM.

On to `N#CC1C(=N)OC2=C(C(=O)CCC2)C1c1ccccc1` (stereo not drawn) [2-amino-5-keto-4-phenyl-4,6,7,8-tetrahydrochromene-3-carbonitrile], for which the EC50 was > 300 µM.

As for `COc1ccc(C2C3=C(CC(C)(C)CC3=O)OC(=N)C2C#N)c(OC)c1OC` (stereo not drawn) [2-amino-5-keto-7,7-dimethyl-4-(2,3,4-trimethoxyphenyl)-6,8-dihydro-4H-chromene-3-carbonitrile], the concentration for a half-maximal effect (EC50) was > 300 µM.

Consider `CC1(C)CC(=O)C2=C(C1)OC(=N)C(C#N)C2c1ccccc1` (stereo not drawn) [2-amino-5-keto-7,7-dimethyl-4-phenyl-6,8-dihydro-4H-chromene-3-carbonitrile], for which the concentration for a half-maximal effect (EC50) is > 300 µM.

For `COc1ccc(C2C3=C(CC(C)CC3=O)OC(=N)C2C#N)c(OC)c1OC` (stereo not drawn) [2-amino-5-keto-7-methyl-4-(2,3,4-trimethoxyphenyl)-4,6,7,8-tetrahydrochromene-3-carbonitrile], the half-maximal effective concentration (EC50) was > 300 µM.

In turn, `CC1CCC2=C(C#N)C(=N)C(C#N)(C#N)C(c3cccs3)C2C1` (stereo not drawn) [2-amino-6-methyl-4-(2-thienyl)-4a,5,6,7-tetrahydro-4H-naphthalene-1,3,3-tricarbonitrile] had an EC50 of 14.9 µM.

For the compound `CCOc1cc(C2C(C(C)=O)=C(C)OC(=N)C2C#N)cc(Br)c1O` (stereo not drawn) [2-azanyl-4-(3-bromanyl-5-ethoxy-4-oxidanyl-phenyl)-5-ethanoyl-6-methyl-4H-pyran-3-carbonitrile], a half-maximal effect (EC50) was put at 12.3 µM.

Consider `N#CC1C(=N)OC2=C(C(=O)CCC2)C1c1cc2c(cc1Br)OCO2` (stereo not drawn) [2-azanyl-4-(6-bromanyl-1,3-benzodioxol-5-yl)-5-oxidanylidene-4,6,7,8-tetrahydrochromene-3-carbonitrile], for which the EC50 is > 300 µM.

Consider `N#CC1C(=N)OC2=C(C(=O)CC(c3ccco3)C2)C1c1ccc(OCc2c(F)cccc2Cl)cc1` (stereo not drawn) [2-azanyl-4-[4-[(2-chloranyl-6-fluoranyl-phenyl)methoxy]phenyl]-7-(furan-2-yl)-5-oxidanylidene-4,6,7,8-tetrahydrochromene-3-carbonitrile], for which the 50% effective concentration (EC50) is > 300 µM.

As to `O=C(O)c1cc(-c2ccc(C=C3NC(=O)N(c4ccc(Cl)cc4)C3=O)o2)ccc1Cl` [2-chloranyl-5-[5-[(Z)-[1-(4-chlorophenyl)-2,5-bis(oxidanylidene)imidazolidin-4-ylidene]methyl]furan-2-yl]benzoic acid], the concentration for a half-maximal effect (EC50) was found to be 38.6 µM.

Consider `CC(N=Nc1ccc(Cl)c(C(=O)O)c1)c1ccc[nH]1` (stereo not drawn) [2-chloro-5-[2-[(1Z)-1-pyrrol-2-ylideneethyl]hydrazinyl]benzoic acid], for which the concentration giving a half-maximal response (EC50) came to 150 µM.

Compound `O=C(O)c1cc(-c2ccc(CN=Nc3ccc([N+](=O)[O-])cn3)o2)ccc1Cl` [2-chloro-5-[5-[[(5-nitropyridin-2-yl)hydrazinylidene]methyl]furan-2-yl]benzoic acid] yielded a 50% effective concentration (EC50) of 6.29 µM. This EC50 lies about 24-fold lower than the previous one.

`CC1(C)CC(=O)C2=C(C1)OC(=N)C(C#N)C2c1cccc(OC(=O)c2ccco2)c1` (stereo not drawn) [2-furancarboxylic acid [3-(2-amino-3-cyano-7,7-dimethyl-5-oxo-6,8-dihydro-4H-1-benzopyran-4-yl)phenyl] ester]: the EC50 was > 300 µM.

As usually defined, the EC50 is the concentration giving half of the maximal effect.
